Experimental data published in US20180296456A1, “Decapeptide-12 Modulation of Sirtuin Gene Expression in Epidermal Keratinocyte Progenitors” (Escape Therapeutics, Inc., priority 2017, published 2018).
Peptide text beside a SMILES is read from it.

Assays:
SIRT5 = SIRT5 transcription, semi-quantitative RT-PCR in human epidermal progenitors; assay type: cell-based; settings: 72 h
Procedure, shortened: (§1)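 Read-out: agarose-gel band densitometry of RT-PCR products, each sirtuin divided by 18S intensity. Cells were human neonatal epidermal progenitors, 60 μM calcium medium, exposed 72 h to decapeptides at 10–300 μM; vehicle controls got DMSO/PBS (0.05 percent DMSO final).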

SIRT7 = SIRT7 transcription, semi-quantitative RT-PCR in human epidermal progenitors; assay type: cell-based; settings: 72 h
Procedure, shortened: as §1

SIRT6 = SIRT6 transcription, semi-quantitative RT-PCR in human epidermal progenitors; assay type: cell-based; settings: 72 h
Procedure, shortened: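 Following a 72 hour treatment, cells were trypsinized and RNA isolated with an RNeasy kit. cDNA was made from 2 μg RNA using oligo dT and TaqMan reagents, then SIRT6 and 18S were amplified for 34 cycles. Products ran on 1.5 percent agarose gels with ethidium bromide; densitometry gave SIRT6/18S intensity ratios compared against vehicle-treated controls.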

[1] = MTT cell proliferation assay, fibroblasts; assay type: cell-based, human; settings: human, MTT, 72 h, read-out: fibroblast proliferation rate after 72 hours
Description: (§2) Proliferation rates for three human cell lines (epidermal progenitors, melanoblasts, and fibroblasts) were determined using a TACS® MTT Cell Proliferation Kit. Cells were seeded at 2.5×10^4/well in 96-well plates in a humidified atmosphere with 5 percent CO2 at 37 degrees Celsius. Twenty-four hours later, the decapeptides were added to the corresponding wells at varying concentrations and incubated for 72 hours. The remainder of the procedure was performed following the manufacturer's protocol.

SIRT3 = SIRT3 transcription, semi-quantitative RT-PCR in human epidermal progenitors; assay type: cell-based; settings: 72 h
Procedure, shortened: as §1

SIRT1 = SIRT1 transcription, semi-quantitative RT-PCR in human epidermal progenitors; assay type: cell-based; settings: 72 h
Procedure, shortened: as §1

[2] = MTT cell proliferation assay, melanoblasts; assay type: cell-based, human; settings: human, MTT, 72 h, read-out: melanoblast proliferation rate after 72 hours
Description: as §2

[3] = Trypan blue cell viability, 7 days, fibroblasts; assay type: cell-based; settings: human, relative to control, read-out: fibroblast viability after 7 days
Description: (§3) The effect of each of the decapeptides upon cell viability was also tested. In particular, cells were incubated with the decapeptide at various concentrations and then counted for viability relative to the control (untreated cells) using trypan blue. Cytotoxicity was measured according to the following formula:
(§4) [1−(# of cells in control−# of live cells in test sample)/# of cells in control]×100 percent.

[4] = Trypan blue cell viability, 7 days, melanoblasts; assay type: cell-based; settings: human, relative to control, read-out: melanoblast viability after 7 days
Description: as §3, §4

SIRT4 = SIRT4 transcription, semi-quantitative RT-PCR in human epidermal progenitors; assay type: cell-based; settings: 72 h

**Q.** What does the source list for `CCCCCCCCCCCCCCCC(=O)N[C@@H](Cc1ccc(O)cc1)C(=O)N[C@@H](CCCNC(=N)N)C(=O)N[C@@H](CO)C(=O)N[C@@H](CCCNC(=N)N)C(=O)N[C@@H](CCCCN)C(=O)N[C@H](Cc1ccc(O)cc1)C(=O)N[C@@H](CO)C(=O)N[C@@H](CO)C(=O)N[C@@H](Cc1c[nH]c2ccccc12)C(=O)N[C@@H](Cc1ccc(O)cc1)C(N)=O` [P4B, Palmitoyl-YRSRK[*Y]SSWY-amide] (HELM PEPTIDE1{[CCCCCCCCCCCCCCCC(=O)[*:2]].Y.R.S.R.K.[dY].S.S.W.Y.[am]}$$$$V2.0)?
**A.** SIRT5 transcription increase relative to control (SIRT5; 10 μM): 2.00%; SIRT5 transcription increase relative to control (SIRT5; 30 μM): 1.00%; SIRT5 transcription increase relative to control (SIRT5; 50 μM): 1.00%; SIRT5 transcription increase relative to control (SIRT5; 100 μM): 35 ± 3%; SIRT5 transcription increase relative to control (SIRT5; 300 μM): 29 ± 5%; SIRT7 transcription increase relative to control (SIRT7; 10 μM): 20 ± 6%; SIRT7 transcription increase relative to control (SIRT7; 30 μM): 23 ± 5%; SIRT7 transcription increase relative to control (SIRT7; 50 μM): 54 ± 7%; SIRT7 transcription increase relative to control (SIRT7; 100 μM): 61 ± 7%; SIRT7 transcription increase relative to control (SIRT7; 300 μM): 103 ± 8%; SIRT6 transcription increase relative to control (SIRT6; 10 μM): 21 ± 5%; SIRT6 transcription increase relative to control (SIRT6; 30 μM): 22 ± 4%; SIRT6 transcription increase relative to control (SIRT6; 50 μM): 10 ± 4%; SIRT6 transcription increase relative to control (SIRT6; 100 μM): 107 ± 2%; SIRT6 transcription increase relative to control (SIRT6; 300 μM): 81 ± 4%; viability at 72 h, 3 µM ([1]; 3 μM): 100%; viability at 72 h, 10 µM ([1]; 10 μM): 99 ± 1%; viability at 72 h, 30 µM ([1]; 30 μM): 99 ± 1%; viability at 72 h, 50 µM ([1]; 50 μM): 99 ± 1%; viability at 72 h, 100 µM ([1]; 100 μM): 98 ± 2%; viability at 72 h, 300 µM ([1]; 300 μM): 97 ± 2%; viability at 72 h, 500 µM ([1]; 500 μM): 96 ± 2%; viability at 72 h, 1000 µM ([1]; 1000 μM): 96 ± 2%; SIRT3 transcription increase relative to control (SIRT3; 10 μM): 22 ± 3%; SIRT3 transcription increase relative to control (SIRT3; 30 μM): 23 ± 2%; SIRT3 transcription increase relative to control (SIRT3; 50 μM): 28 ± 5%; SIRT3 transcription increase relative to control (SIRT3; 100 μM): 78 ± 10%; SIRT3 transcription increase relative to control (SIRT3; 300 μM): 142 ± 5%; SIRT1 transcription increase relative to control (SIRT1; 10 μM): 10 ± 4%; SIRT1 transcription increase relative to control (SIRT1; 30 μM): 10 ± 3%; SIRT1 transcription increase relative to control (SIRT1; 50 μM): 48 ± 3%; SIRT1 transcription increase relative to control (SIRT1; 100 μM): 135 ± 12%; SIRT1 transcription increase relative to control (SIRT1; 300 μM): 155 ± 3%; viability at 72 h, 3 µM ([2]; 3 μM): 100%; viability at 72 h, 10 µM ([2]; 10 μM): 100%; viability at 72 h, 30 µM ([2]; 30 μM): 99 ± 1%; viability at 72 h, 50 µM ([2]; 50 μM): 98 ± 1%; viability at 72 h, 100 µM ([2]; 100 μM): 97 ± 2%; viability at 72 h, 300 µM ([2]; 300 μM): 96 ± 2%; viability at 72 h, 500 µM ([2]; 500 μM): 95 ± 2%; viability at 72 h, 1000 µM ([2]; 1000 μM): 94 ± 2%; viability at 168 h, 3 µM ([3]; 3 μM): 100%; viability at 168 h, 10 µM ([3]; 10 μM): 98.8 ± 1%; viability at 168 h, 30 µM ([3]; 30 μM): 98.3 ± 1%; viability at 168 h, 50 µM ([3]; 50 μM): 97.6 ± 1%; viability at 168 h, 100 µM ([3]; 100 μM): 97.3 ± 2%; viability at 168 h, 300 µM ([3]; 300 μM): 96.5 ± 2%; viability at 168 h, 500 µM ([3]; 500 μM): 95.3 ± 3%; viability at 168 h, 1000 µM ([3]; 1000 μM): 94.2 ± 3%; viability at 168 h, 3 µM ([4]; 3 μM): 100%; viability at 168 h, 10 µM ([4]; 10 μM): 98.5 ± 1%; viability at 168 h, 30 µM ([4]; 30 μM): 97.8 ± 3%; viability at 168 h, 50 µM ([4]; 50 μM): 97.2 ± 2%; viability at 168 h, 100 µM ([4]; 100 μM): 96.3 ± 2%; viability at 168 h, 300 µM ([4]; 300 μM): 95.6 ± 2%; viability at 168 h, 500 µM ([4]; 500 μM): 94.6 ± 2%; viability at 168 h, 1000 µM ([4]; 1000 μM): 93.8 ± 2%; SIRT4 transcription increase relative to control (SIRT4; 10 μM): 9 ± 1%; SIRT4 transcription increase relative to control (SIRT4; 30 μM): 10 ± 1%; SIRT4 transcription increase relative to control (SIRT4; 50 μM): 17 ± 1%; SIRT4 transcription increase relative to control (SIRT4; 100 μM): 86 ± 6%; SIRT4 transcription increase relative to control (SIRT4; 300 μM): 49 ± 4%
